Results on 14 molecules are retold here after patent US11352352B2, “Aminopyrimidine compound, preparation method therefor and use thereof” (BEIJING ADAMADLE BIOTECHNOLOGY LIMITED LIABILITY COMPANY, priority 2017, dated 2022).

What is called IC50 is the midpoint of a concentration-inhibition curve. Higher therefore signals a need for much substance.

What all share (test): Cell proliferation inhibition experiment, CellTiter-Glo (CTG) method
Holding throughout (assay type): cell-based

For one test, the system named is NCI-H1975. To be noted: for IC50: Homo sapiens, NCI-H1975, 72 h, NCI-H1975 cells, CTG, 3 days; for A-431/NCI-H1975 Selectivity: ratio of A-431 IC50 to NCI-H1975 IC50. A digest of the protocol: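 NCI-H1975 cells with viability above 90% by trypan blue were seeded at 90 μL per well in black 96-well plates and incubated overnight at 37° C., 5% CO2. Compounds were added at nine concentrations in triplicate, and viability was measured with CellTiter-Glo luminescence on EnVision. IC50 came from non-linear S-curve fitting in GraphPad Prism 5.0.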

A further test deals with PC-9. The settings on record: Homo sapiens, PC-9, 72 h, PC-9 cells, 3 days. Put shortly: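 Cells in log-phase growth (viability above 90% by trypan blue) were seeded at 90 μL per well in black-walled, clear-bottom 96-well plates and incubated overnight at 37° C., 5% CO2. A T0 plate was read the next day. Test compounds were added at nine concentrations in triplicate with a solvent control. Viability was measured by CellTiter-Glo luminescence on EnVision, and IC50 came from non-linear S-curve fitting in GraphPad Prism 5.0.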

In a further test the test system is A-431. To be noted: Homo sapiens, A-431, 72 h, A-431 cells, 3 days. A digest of the protocol:
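IC50 values come from sigmoidal dose-response fits of percent survival, measured by CellTiter-Glo luminescence after 3 days' culture with compound. Nine-point, threefold series in triplicate, starting at 30 μM for A-431 and at 1.111 μM for NCI-H1975 and PC-9.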

As for `C=CC(=O)Nc1cc(Nc2nccc(-c3ccc4c(cnn4CC)c3)n2)c(OCC)cc1N(C)CCN(C)C` [compound 243], the IC50 with NCI-H1975 amounted to 42.9 nM; in the test on PC-9 it was 65.4 nM; in the test on A-431 it was 2180 nM. Besides, the “A-431/NCI-H1975 Selectivity” value in the test on NCI-H1975 stood at 50.8.
As to `C=CC(=O)Nc1cc(Nc2nccc(-c3ccc4c(cnn4C)c3)n2)c(OC)cc1N(C)CCN1CCN(C)CC1` [compound 244], the IC50 in the test with NCI-H1975 was 59.7 nM; with PC-9, 84.7 nM; in the test on A-431, 2400 nM. Also, the “A-431/NCI-H1975 Selectivity” value in the test on NCI-H1975 is reported as 40.2.
The matching figures for `C=CC(=O)Nc1cc(Nc2nccc(-c3ccc4c(cnn4C)c3)n2)c(OC(F)F)cc1N(C)CCN1CCN(C)CC1` [compound 245]: 61.6 nM, 70.7 nM, 2380 nM and 38.6.
The matching figures for `C=CC(=O)Nc1cc(Nc2nccc(-c3ccc4c(cnn4C)c3)n2)c(OC)cc1N(C)CCNC(C)(C)C` [compound 246]: 89.7 nM, 67.2 nM, 2300 nM and 25.6.
As for `C=CC(=O)Nc1cc(Nc2nccc(-c3ccc4c(cnn4C)c3)n2)c(OC(F)F)cc1N(C)CCNC(C)(C)C` [compound 247], the values for the half-maximal inhibitory concentration (IC50) in the test on NCI-H1975, with PC-9 and in the test on A-431 were 37.1 nM, 37.4 nM and 2990 nM, respectively. The “A-431/NCI-H1975 Selectivity” value with NCI-H1975 was 80.5.
The matching figures for `C=CC(=O)Nc1cc(Nc2nccc(-c3ccc4c(cnn4C)c3)n2)c(OC)cc1NCCN(C)C` [compound 248]: 13.3 nM, 27.7 nM, 2850 nM and 214.3.
The matching figures for `C=CC(=O)Nc1cc(Nc2nccc(-c3ccc4c(cnn4C)c3)n2)c(OC(F)F)cc1NCCN(C)C` [compound 249]: 8.6 nM, 61 nM, 943 nM and 109.7.
The matching figures for `C=CC(=O)Nc1cc(Nc2nccc(-c3ccc4c(cnn4C)c3)n2)c(OC)cc1N(C)CCN1CCN(C2CC2)CC1` [compound 252]: 188 nM, 25.5 nM, 2990 nM and 16.0.
As to `C=CC(=O)Nc1cc(Nc2nccc(-c3ccc4c(cnn4C)c3)n2)c(OC)cc1N1CCC(N2CCN(C(C)=O)CC2)CC1` [compound 253], the results for the IC50 in the test on NCI-H1975, in the test on PC-9 and in the test on A-431 were 62.2 nM, 32.1 nM and 2490 nM, respectively. The “A-431/NCI-H1975 Selectivity” value with NCI-H1975 turned out to be 40.0.
As for `C=CC(=O)Nc1cc(Nc2nccc(-c3ccc4c(cnn4C)c3)n2)c(OC)cc1N(C)CCN1CCN(C(C)=O)CC1` [compound 254], the half-inhibitory concentration (IC50) in the test on NCI-H1975 turned out to be 132 nM; in the test on PC-9, 30.9 nM; in the test on A-431, 2270 nM. Further, the “A-431/NCI-H1975 Selectivity” value in the test with NCI-H1975 is on record as 17.2.
As for `C=CC(=O)Nc1cc(Nc2nccc(-c3ccc4nc(C)sc4c3)n2)c(OC)cc1N(C)CCN(C)C` [compound 255], the concentration for half-maximal inhibition (IC50) in the test on NCI-H1975 stood at 46.4 nM; in the test with PC-9, 30 nM; in the test with A-431 it was 2010 nM. In addition, the “A-431/NCI-H1975 Selectivity” value in the test with NCI-H1975 came to 43.4.
The matching figures for `C=CC(=O)Nc1cc(Nc2cc(-c3ccc4c(cnn4C)c3)ncn2)c(OC(F)F)cc1N(C)CCN(C)C(C)C` [compound 256]: 9.6 nM, 19.2 nM, 992 nM and 103.3.
With `C=CC(=O)Nc1cc(Nc2nccc(-c3ccc4c(cnn4C)c3)n2)c(OC)cc1N(C)CCN(C)C(C)C` [compound 257], the results for the concentration for half-maximal inhibition (IC50) with NCI-H1975, in the test with PC-9 and with A-431 were 58.6 nM, 42.7 nM and 2070 nM, respectively. Further, the “A-431/NCI-H1975 Selectivity” value in the test with NCI-H1975 was found to be 35.3.
As to `C=CC(=O)Nc1cc(Nc2nccc(-c3ccc4c(cnn4C)c3)n2)c(OCC)cc1N(C)CCN(C)CC` [compound 258], the IC50 amounted to 51.6 nM in the test on NCI-H1975, 32.4 nM in the test with PC-9 and 2950 nM with A-431. Further, the “A-431/NCI-H1975 Selectivity” value in the test on NCI-H1975 amounted to 57.1.
